Results published in US20210371817A1, “COMPOSITIONS AND METHODS FOR PRECISE PATTERNING OF POSTERIOR NEUROECTODERM FROM HUMAN PLURIPOTENT STEM CELLS” (WISCONSIN ALUMNI RESEARCH FOUNDATION, priority 2013, published 2021).

Experiments:
Format in all cases: cell-based, human
[1] = tested on: neuromesodermal progenitors; assay: Neuroectoderm or mesoderm fate transition of neuromesodermal progenitors by flow cytometry
Protocol: (§1) Assessment of neuroectoderm or mesoderm fate transition by flow cytometry. Grey histogram, IgG control; red histogram, antigen of interest. Data are presented as mean±standard deviation calculated from two biological replicates. (FIG. 8B) For experiments in panels FIGS. 8C-8F, neuromesodermal propagation was halted by removing FGF8b/CHIR 99021/GDF11 and adding RA. Assays were conducted after 4 days of RA treatment. (FIG. 8C) HOX profiles generated after RA treatment. Each gene is normalized to its maximum expression. Error bars are standard deviation calculated from duplicate reactions. (FIG. 8D) HoxB4 and HoxD10 expression in neuroepithelial cultures after RA treatment. Scale bars, 100 m. (FIG. 8E) Purity of Sox2, Pax6, HoxB4, and HoxD10 after 4 days of RA treatment. Sox2, Pax6, and HoxB4 were quantified using flow cytometry and HoxD10 was quantified by manual counting of dissociated cells ([…]). Error bars are standard deviation calculated from at least two biological replicates. […] (FIG. 8F) Motor neuron differentiation at cervical, thoracic, and lumbar spinal cord depths, where the motor neuron precursors show region-specific patterns of FoxP1, Isl1, and Hb9 co-expression. (FIG. 8G) Neuronal maturation from cervical, thoracic, and lumbar patterned NSCs, as assessed by immunocytochemistry (top panel; DAPI (blue) is overlaid in all images; Scale bars, 20 m) and RT-PCR (50 cycles; bottom panel).
(§2) Flow cytometry. Flow cytometry was conducted as described in the Examples above. Primary antibodies against Sox2 (mouse; 1:1000; Millipore), brachyury (goat; 1:200; R&D Systems), Pax6 (mouse; 1:200; DSHB), and HoxB4 (rat; 1:50; DSHB) were utilized. Samples were run on a FACSCaliber (BD Biosciences) and data were analyzed using Cyflogic software. Positive events were quantified by gating above the top 1% of species-matched IgG controls.
We next evaluated the transition of neuromesodermal progenitors to definitive neural progenitors. RA secreted from somites in response to declining FGF signaling elicits dorsal/ventral patterning and expression of the neuroectoderm marker Pax6 in vivo^16, 26, which led us to suspect RA serves as both the neuroectoderm fate switch and HOX ‘stop signal’. We first investigated the ability of RA to initiate neuroectoderm specification from neuromesodermal progenitors. […] At any point in neuromesodermal differentiation, the addition of RA generated highly pure (>83%) Pax6^+ neuroectoderm (FIGS. 8B-8E and FIGS. 9A-9C).

[2] = tested on: NSC cultures; assay: Hox protein expression in NSC cultures after RA treatment (immunocytochemistry, flow cytometry)
Protocol: as §1
FIGS. 9A-9C (FIG. 9A) provides additional data showing that RA induces a neuroectodermal fate and halts colinear HOX activation, using the neural differentiation scheme shown in FIG. 8B and representative hindbrain cultures assessed by qPCR. (FIG. 9B) Representative hindbrain cultures assessed by immunocytochemistry. (FIG. 9C) Representative hindbrain cultures assessed by flow cytometry. All data are presented as mean±S.D. and qPCR data are normalized to the time point of maximum expression for each gene. For the hindbrain cultures, HoxB1 and HoxB4 were quantified by immunocytochemistry relative to DAPI+ nuclei, while Sox2 and Pax6 were quantified by flow cytometry. Scale bars, 100 m.
as §2
Immunocytochemistry. Immunocytochemistry was conducted as previously described. […]

[3] = tested on: neurally differentiating hPSC cultures; assay: Alternative FGF isoforms in HOX patterning protocol (flow cytometry, RT-PCR); details: for Sox2 and T (Brachyury) expression: FGF with CHIR, flow cytometry; for Hox1-5 paralog activation: two days of FGF/CHIR treatment, RT-PCR
Protocol: (FIG. 6A) Timeline of differentiation. […] (FIG. 6H) Agarose gel analysis for HOXgene expression after two days of FGF/CHR treatment in the protocol outlined in (FIG. 6A).
Specifically, FGF8a, 8b, and 8f, FGF17, FGF18, and FGF2 were used to execute our HOX patterning protocol on concurrent neurally differentiating hPSC cultures. The ability of alternative FGFs to recapitulate the effects of FGF8b was assessed by their ability to maintain a Sox2^+/T^+ neuromesodermal state while also inducing a similar rate of sequential HOXgene expression. Post FGF/CHIR addition, flow cytometry assays for Sox2 and T were performed, and the rate of sequential HOXgene expression was assessed by RT-PCR for a select panel of HOXgenes on collected mRNA samples.

[4] = tested on: H9 ishcat2 line; assay: qPCR gene expression in H9 ishcat2 line (doxycycline-inducible β-catenin shRNA)
Protocol: Cell lines were passaged for differentiation on day −1 for all experiments (see Example 4 for details). (FIG. 4A) Timeline of H9 hESC differentiation corresponding to panels (FIG. 4B) and (FIG. 4C). RA, 1 μM; CHIR 99021, 3 μM; FGF8b, 100 ng/ml. (FIG. 4B) Gene expression analysis by RT-PCR. Control sample is E6 medium alone. (FIG. 4C) qPCR analysis at day 5 of differentiation normalized to the morphogen treatment that yielded maximum expression. Statistical significance was calculated using the Student's unpaired t-test relative to the sample with maximum expression (*, p<0.005; **, p<0.001). (FIG. 4D) qPCR analysis of gene expression at day 2 using the H9 ishcat2 line in the presence or absence of doxycycline (2 μg/ml) added 3 days prior to morphogen treatment. Data are normalized to doxycycline-free samples for each respective morphogen and statistical significance was calculated using the Student's unpaired t-test (*, p<0.01). (FIG. 4E) qPCR analysis of gene expression at day 5 using the H9 ishcat2 line in the presence or absence of doxycycline. Statistical significance was calculated using the Student's unpaired t-test (*, p<0.005). […] [HX531]=1 μM. Timeline shown on left panel.
(§3) qPCR. Total RNA was extracted from cultured cells using TRIZOL® (Life Technologies) according to the manufacturer's instructions. After isolation, 2-5 μg of total RNA was immediately subjected to reverse transcription using the Thermoscript™ RT-PCR kit (Life Technologies) in a 20 μL reaction according to the manufacturer's instructions. Resultant cDNA was diluted to 200 μL and utilized for qPCR (25 μL reactions, 1 μL cDNA per reaction) on a BioRad CFX96 detection unit using TAQMAN® Gene Expression Master Mix (Life Technologies) and TAQMAN® primers (Life Technologies). For all experiments, ΔΔCt values for each gene were calculated relative to ribosomal protein S18 (RPS18) RNA levels and converted to fold difference assuming 100% primer efficiency, then normalized to maximum expression levels as indicated in each figure legend.
To confirm the effects of CHIR 99021 were due to activation of β-catenin, we utilized the H9 ishcat2 line which harbors a doxycycline-inducible β-catenin shRNA cassette^23. […] We extended doxycycline with FGF8b/CHIR 99021 for 4 days and observed a reduction in HOXC6 by 9-fold, HOXC8 by 7-fold, and HOXC9 by 8-fold, which implicates β-catenin in HOX progression to caudal paralogs (FIG. 4E).

[5] = tested on: H9 hESCs; assay: HOX, OTX2 and T gene expression by RT-PCR/qPCR during hESC differentiation with morphogens; details: HX531 1 μM; RT-PCR
Protocol: hPSC differentiation. hPSCs were washed once with phosphate-buffered saline (PBS; Invitrogen), dissociated with ACCUTASE® (Invitrogen) for 3 min, and collected by centrifugation. hPSCs were then seeded onto VTN-NC-coated plates in E8 medium containing 10 μM ROCK inhibitor (Y27632; R&D Systems). Seeding density was 2×10^5 cells/cm^2. The following day, the cells were switched to E6 medium (same composition as E8 medium minus FGF2 and TGFβ 1). Morphogen treatments were then carried out according to the figures in the text. Cells were supplemented with FGF8b (100-200 ng/ml; Peprotech), CHIR99021 (3-6 μM; Tocris), and/or RA (3 μM; Sigma).
Reverse transcriptase polymerase chain reaction (RT-PCR). Total RNA was extracted from cells using TRIZOL® reagent (Invitrogen) according to the manufacturer's instructions. RNA was then subjected to reverse-transcription using a Thermoscript™ RT-PCR kit (Invitrogen) in a 20 μL mixture according to the manufacturer's instructions. The resulting cDNA was then amplified in a 25 μL mixture containing 10×PCR buffer, 0.2 mM dNTP, 1.5 mM MgCl2, 0.5 μM of each primer, and 1 U Taq DNA polymerase (Invitrogen). Amplified products were resolved on 2% agarose gels containing SYBR Safe (Invitrogen) and visualized with a VersaDoc (BioRad). Primer sequences can be found in Table 3. All amplifications were carried out for 35 cycles. HOXC5 and HOXC6 were amplified at 58° C., all others with an annealing temperature of 55° C.
Propagation and differentiation of neuromesodermal progenitors. H9 hESCs (passage 25-45), H9 ishcat2 hESCs (passage 33-43), and IMR90-4 iPSCs (passage 31-40) were maintained in E8 medium on MATRIGEL© (BD Biosciences) as previously described. To initiate differentiation, hPSCs were passaged with ACCUTASE© (Life Technologies) onto vitronectin (VTN-NC)-coated plates at a density of 1×10^5 cells/cm^2 as previously described. The following day, cells were changed to E6 medium. 24 h later, cells were changed to E6 medium containing 200 ng/ml FGF8b (Peprotech). 24 h later, cells were washed once with 2 ml PBS, treated with ACCUTASE® for 2 min, and removed from the surface by gentle pipetting. After collection by centrifugation, cells were gently resuspended in E6 medium containing 200 ng/ml FGF8b and CHIR99021 (CHIR, concentration varied depending on cell line; Tocris) and re-seeded on VTN-NC-coated plates at a density of 1.5×10^5 cells/cm^2. Medium was not changed until 48 h after passaging. This passaging process was repeated on day 3 of CHIR 99021 treatment (re-seed density of 1.2×10^5 cells/cm^2) if extended neuromesodermal propagation was required, and 50 ng/ml GDF11 (Peprotech) was added on day 4 of CHIR 99021 treatment to initiate lumbar patterning. Cells were changed to E6 medium containing 1 μM retinoic acid (RA; Sigma) to facilitate neural transition.
as §3, with “Resultant cDNA was diluted to 200 μL and utilized for qPCR (25 μL reactions, 1 μL cDNA per reaction) on a BioRad CFX96 detection unit using TAQMAN® Gene Expression Master Mix (Life Technologies) and TAQMAN® primers (Life Technologies).” left out, “legend. […]” for “legend.”

[6] = neuromesodermal progenitors exposed to E6 medium with the substance
[7] = doxycycline prior to CHIR 99021 treatment, day 2
[8] = doxycycline with FGF8b/CHIR 99021 for 4 days

Question: Which “Purity of Pax6+ neuroectoderm” value ([1]; RA added at any point in neuromesodermal differentiation) does the source give for `CC1=C(/C=C/C(C)=C/C=C/C(C)=C/C(=O)O)C(C)(C)CCC1` [RA, retinoic acid] here?
Answer: Its value is greater than 83%.

Question: And the “Brachyury+ cells” value [1, 6]?
Answer: The value was 43±4%.

Question: And the “Pax6+ cells” value [1, 6]?
Answer: The value was 97±3%.

Question: And the “Sox2+ cells” value [1, 6]?
Answer: Its value is 98±4%.

Question: What about the “HoxB4+ cells” value ([2]; RA added 24 h later (within 24 h of HOXC9 induction)) of the same molecule?
Answer: The value was 12±4%.

Question: What about the “HoxB4+ cells” value ([2]; RA added between 24-48 h of neuromesodermal propagation) of the same molecule?
Answer: Its value is 84±10%.

Question: What does the source list for “FGF2: fibroblast growth factor isoform used instead of FGF8b”?
Answer: Sox2 and T (Brachyury) expression [3]: nearly uniform expression of Sox2 and T (Brachyury); Hox1-5 paralog activation [3]: activated Hox1-5 paralogs

Question: How did the CTNNB1 reduction ([4]; RA-treated cells, day 2) turn out when `C[C@H]1c2cccc(O)c2C(=O)C2=C(O)[C@]3(O)C(=O)C(C(N)=O)=C(O)[C@@H](N(C)C)[C@@H]3[C@@H](O)[C@@H]21` [doxycycline] was run?
Answer: The CTNNB1 reduction was 2 fold.

Question: What about the “CTNNB1 (β-catenin) expression reduction” value ([4]; doxycycline 2 μg/ml prior to CHIR 99021 treatment, day 2) of the same molecule?
Answer: Its value is 2.5 fold.

Question: And the HOXA1 expression decrease [4, 7]?
Answer: The HOXA1 expression decrease was 15 fold.

Question: What about the HOXB1 expression decrease [4, 7] of the same molecule?
Answer: The HOXB1 expression decrease was 47 fold.

Question: And the T reduction ([4]; doxycycline with FGF8b/CHIR 99021, day 5)?
Answer: The T reduction was 30 fold.

Question: What about the HOXC6 reduction [4, 8] of the same molecule?
Answer: The HOXC6 reduction was 9 fold.

Question: What about the HOXC8 reduction [4, 8] of the same molecule?
Answer: Its HOXC8 reduction is 7 fold.

Question: What about the HOXC9 reduction [4, 8] of the same molecule?
Answer: The HOXC9 reduction was 8 fold.

Question: With `CN1c2ccc([N+](=O)[O-])cc2N=C(c2ccc(C(=O)O)cc2)c2cc3c(cc21)C(C)(C)CCC3(C)C` [HX531] as the molecule, how does the “Effect on ability of FGF8b/CHIR 99021 to activate cervical and thoracic HOX paralogs” value [5] read?
Answer: The value was “did not prevent”.

B1: FGF17: fibroblast growth factor isoform used instead of FGF8b (protein, UniProt O60258 23-216, looked up)
Fibroblast growth factor 17: TQGENHPSPNFNQYVRDQGAMTDQLSRRQIREYQLYSRTSGKHVQVTGRRISATAEDGNKFAKLIVETDTFGSRVRIKGAESEKYICMNKRGKLIGKPSGKSKDCVFTEIVLENNYTAFQNARHEGWFMAFTRQGRPRQASRSRQNQREAHFIKRLYQGQLPFPNHAEKQKQFEFVGSAPTRRTKRTRRPQPLT
Question: For B1, which “Sox2 and T (Brachyury) expression” value [3] is on record?
Answer: The value was “nearly uniform expression of Sox2 and T (Brachyury)”.

Question: And the Hox1-5 paralog activation [3]?
Answer: Its Hox1-5 paralog activation is “activated Hox1-5 paralogs”.

B2: FGF18: fibroblast growth factor isoform used instead of FGF8b (protein, UniProt O76093 28-207, looked up)
Fibroblast growth factor 18: EENVDFRIHVENQTRARDDVSRKQLRLYQLYSRTSGKHIQVLGRRISARGEDGDKYAQLLVETDTFGSQVRIKGKETEFYLCMNRKGKLVGKPDGTSKECVFIEKVLENNYTALMSAKYSGWYVGFTKKGRPRKGPKTRENQQDVHFMKRYPKGQPELQKPFKYTTVTKRSRRIRPTHPA
Question: For B2, which “Sox2 and T (Brachyury) expression” value [3] is on record?
Answer: Its value is “nearly uniform expression of Sox2 and T (Brachyury)”.

Question: What about the Hox1-5 paralog activation [3] of the same molecule?
Answer: The Hox1-5 paralog activation was “activated Hox1-5 paralogs”.
